Patent US9586963B2 (GENFIT, priority 2011, dated 2017)

Tests used:
Rev-Erb alpha = target: T1, Rev-Erb alpha (Homo sapiens, UniProt P20393); experiment: M2H (mammalian two-hybrid) cellular activation assay of Rev-Erb alpha; type: cell-based; details: M2H assay, HEK293 cells; for EC50: Gal4-Rev-Erb alpha / VP16-NCoR, luciferase reporter
T1 sequence (P20393 284-614 limits assumed): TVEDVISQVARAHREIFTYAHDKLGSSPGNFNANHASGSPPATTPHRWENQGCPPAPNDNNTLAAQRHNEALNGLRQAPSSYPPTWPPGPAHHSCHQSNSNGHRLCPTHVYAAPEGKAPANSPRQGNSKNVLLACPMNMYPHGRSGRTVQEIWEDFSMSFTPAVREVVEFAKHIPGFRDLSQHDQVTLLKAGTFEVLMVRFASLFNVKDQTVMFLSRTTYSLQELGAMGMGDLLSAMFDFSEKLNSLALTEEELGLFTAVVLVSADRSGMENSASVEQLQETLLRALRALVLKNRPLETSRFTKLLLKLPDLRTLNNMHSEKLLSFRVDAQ
Method in brief: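 Six-point dose-response, 18 h, 37 °C, serum-free, in HEK293 cells carrying a Gal4-RE luciferase reporter with Gal4-Rev-Erb alpha or beta plus VP16-NCoR (corepressor interaction readout). EC50 and TOP activation (%) derived from luminescence across four experiments.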

Row | SMILES | EC50 (Rev-Erb alpha) | melting point | Emax (Rev-Erb alpha; relative to DMSO, at the tested dose, read-out: TOP activation)
1 | CCC(=O)Nc1ccc(Oc2ccc3nnc(Cl)n3n2)c(-c2ccccc2)c1 [Cpd.4-191, 3-chloro-6-(5-ethylcarbonylamino-biphenyl-2-yloxy)-[1,2,4]triazolo[4,3-b]pyridazine] | 1 to 6 µM | 163 to 165 °C | –
2 | CCCN(CCC)c1ccc(Oc2ccc3nnc(Cl)n3n2)c(-c2ccccc2)c1 [Cpd.4-53, 3-chloro-6-(5-dipropylamino-biphenyl-2-yloxy)-[1,2,4]triazolo[4,3-b]pyridazine] | 0.1 to 1 µM | 106 to 109 °C | –
3 | COc1ccc(-c2ccccc2Oc2ccc3nnc(Cl)n3n2)cc1 [Cpd.4-22, 6-(4′-methoxy-biphenyl-2-yloxy)-3-chloro-[1,2,4]triazolo[4,3-b]pyridazine] | 0.1 to 1 µM | 138.1 °C | –
4 | Clc1ccc(-c2ccccc2Oc2ccc3nnc(Cl)n3n2)cc1 [Cpd.4-117, 3-chloro-6-(4′-chlorobiphenyl-2-yloxy)-[1,2,4]triazolo[4,3-b]pyridazine] | 0.1 to 1 µM | 173 °C | –
5 | COc1ncc(C(F)(F)F)cc1-c1ccc(C(F)(F)F)cc1Oc1nn2c(Cl)nnc2cc1C [Cpd.5-26, 3-chloro-7-methyl-6-((2-(2-methoxy-5-(trifluoromethyl)pyridin-3-yl))-5-(trifluoromethyl)phenoxy)-[1,2,4]triazolo[4,3-b]pyridazine] | 1 to 6 µM | 194 to 196 °C | –
6 | FC(F)(F)c1ccc(-c2ccccc2)c(Oc2ccc3nnc(C(F)(F)F)n3n2)c1 [Cpd.4-38, 6-(4-trifluoromethyl-biphenyl-2-yloxy)-3-(trifluoromethyl)-[1,2,4]triazolo[4,3-b]pyridazine] | 0.1 to 1 µM | 150 °C | –
7 | COc1ccc(-c2cccc(C(F)(F)F)c2)c(Oc2ccc3nnc(Cl)n3n2)c1 [Cpd.4-113, 3-chloro-6-{[4-methoxy-3′-(trifluoromethyl)biphenyl-2-yl]oxy}-[1,2,4]triazolo[4,3-b]pyridazine] | 0.1 to 1 µM | 111.6 °C | –
8 | Clc1nnc2ccc(Oc3ccc(CN4CCCCC4)cc3-c3ccccc3)nn12 [Cpd.4-156, 3-chloro-6-(5-piperidin-1-ylmethylbiphenyl-2-yloxy)-[1,2,4]triazolo[4,3-b]pyridazine] | > 6 µM | 70 to 70.4 °C | > 130%
9 | COc1nccc(C)c1-c1ccc(C(F)(F)F)cc1Oc1cc(C)c2nnc(Cl)n2n1 [Cpd.5-39, 3-chloro-8-methyl-6-((2-(2-methoxy-4-methylpyridin-3-yl))-5-(trifluoromethyl)phenoxy)-[1,2,4]triazolo[4,3-b]pyridazine] | 1 to 6 µM | 139 to 141 °C | –
10 | Fc1cccc(-c2cc(F)ccc2Oc2ccc3nnc(Cl)n3n2)c1 [Cpd.4-120, 3-chloro-6-(3′,5-difluorobiphenyl-2-yloxy)-[1,2,4]triazolo[4,3-b]pyridazine] | 0.1 to 1 µM | 106.2 °C | –
11 | CC(C)CNc1ccc(-c2ccccc2)c(Oc2ccc3nnc(Cl)n3n2)c1 [Cpd.4-51, 3-chloro-6-(4-N-2-methylpropylamino-biphenyl-2-yloxy)-[1,2,4]triazolo[4,3-b]pyridazine] | 0.1 to 1 µM | 124 to 128 °C | –
12 | COc1ncc(-c2cc(Cl)ccc2Oc2cc(C)c3nnc(Cl)n3n2)cn1 [Cpd.5-55, 3-chloro-6-(4-chloro-2-(2-methoxypyrimidin-5-yl)phenoxy)-8-methyl-[1,2,4]triazolo[4,3-b]pyridazine] | 1 to 6 µM | 170 to 172 °C | –
13 | COc1ccc(-c2ccc(F)cc2)c(Oc2ccc3nnc(Cl)n3n2)c1 [Cpd.4-34, 6-(4′-fluoro-4-methoxy-biphenyl-2-yloxy)-3-chloro-[1,2,4]triazolo[4,3-b]pyridazine] | 0.1 to 1 µM | 171.7 °C | –
14 | COc1cccc(-c2cc(F)ccc2Oc2ccc3nnc(C(F)(F)F)n3n2)c1 [Cpd.4-149, 3-(trifluoromethyl)-6-(5-fluoro-3′-methoxybiphenyl-2-yloxy)-[1,2,4]triazolo[4,3-b]pyridazine] | 1 to 6 µM | 73.7 to 76.9 °C | –
15 | CC(C)N(Cc1ccc(Oc2ccc3nnc(Cl)n3n2)c(-c2ccccc2)c1)C(C)C [Cpd.4-166, 3-chloro-6-(5-(diisopropylaminomethyl)biphenyl-2-yloxy)-[1,2,4]triazolo[4,3-b]pyridazine] | 1 to 6 µM | 59.1 °C | –
16 | Fc1ccc(Oc2ccc3nnc(Cl)n3n2)c(-c2ccc(Cl)cc2)c1 [Cpd.4-118, 3-chloro-6-(4′-chloro-5-fluorobiphenyl-2-yloxy)-[1,2,4]triazolo[4,3-b]pyridazine] | 0.1 to 1 µM | 172 °C | –
17 | Oc1cccc(-c2cc(F)ccc2Oc2ccc3nnc(Cl)n3n2)c1 [Cpd.4-77, 3-chloro-6-(5-fluoro-3′-hydroxy-biphenyl-2-yloxy)-[1,2,4]triazolo[4,3-b]pyridazine] | 1 to 6 µM | 241.3 to 244.5 °C | –

Row | SMILES | EC50 (Rev-Erb alpha) | melting point | Emax (Rev-Erb alpha; relative to DMSO, at the tested dose, read-out: TOP activation)
18 | Clc1ccccc1-c1cccc(Oc2ccc3nnc(Cl)n3n2)c1 [Cpd.3-11, 6-(2′-chloro-biphenyl-3-yloxy)-3-chloro-[1,2,4]triazolo[4,3-b]pyridazine] | 1 to 6 µM | 82.4 °C | –
19 | Clc1ccc(Oc2ccc3nnc(Cl)n3n2)c(-c2ccccc2)c1 [Cpd.4-35, 6-(5-chloro-biphenyl-2-yloxy)-3-chloro-[1,2,4]triazolo[4,3-b]pyridazine] | 0.1 to 1 µM | 166.2 °C | –
20 | FC(F)(F)c1ccc(-c2ccccc2)c(Oc2ccc3nnc(Cl)n3n2)c1 [Cpd.4-33, 6-(4-trifluoromethyl-biphenyl-2-yloxy)-3-chloro-[1,2,4]triazolo[4,3-b]pyridazine] | < 0.1 µM | 138.9 °C | –
21 | Cc1cc(Oc2cc(C(F)(F)F)ccc2-c2ccccc2)nn2c(Cl)nnc12 [Cpd.5-6, 3-chloro-8-methyl-6-(4-trifluoromethyl-biphenyl-2-yloxy)-[1,2,4]triazolo[4,3-b]pyridazine] | < 0.1 µM | 169 to 172 °C | –
22 | COc1ccc(C(=O)c2ccccc2)c(Oc2ccc3nnc(Cl)n3n2)c1 [Cpd.4-144, 3-chloro-6-(2-benzoyl-5-methoxy-phenoxy)-[1,2,4]triazolo[4,3-b]pyridazine] | 0.1 to 1 µM | 175 to 176 °C | –
23 | COc1ccc(Oc2ccc3nnc(Cl)n3n2)c(-c2ccccc2)c1 [Cpd.4-14, 6-(5-methoxybiphenyl-2-yloxy)-3-chloro-[1,2,4]triazolo[4,3-b]pyridazine] | 0.1 to 1 µM | 164.6 °C | –
24 | COc1ncc(F)cc1-c1ccc(C(F)(F)F)cc1Oc1cc(C)c2nnc(Cl)n2n1 [Cpd.4-193, 3-chloro-8-methyl-6-((2-(2-methoxy-5-fluoropyridin-3-yl))-5-(trifluoromethyl)-phenoxy)-[1,2,4]triazolo[4,3-b]pyridazine] | 0.1 to 1 µM | 130 to 132 °C | –
25 | CCc1nnc2c(C)cc(Oc3cc(C(F)(F)F)ccc3-c3cncnc3)nn12 [Cpd.5-48, 3-ethyl-8-methyl-6-(2-(pyrimidin-5-yl)-5-(trifluoromethyl)phenoxy)-[1,2,4]triazolo[4,3-b]pyridazine] | 1 to 6 µM | 182 to 184 °C | –
26 | CCCCNc1ccc(-c2ccccc2)c(Oc2ccc3nnc(Cl)n3n2)c1 [Cpd.4-50, 3-chloro-6-(4-N-butylamino-biphenyl-2-yloxy)-[1,2,4]triazolo[4,3-b]pyridazine] | 0.1 to 1 µM | 132 to 135 °C | –
27 | Clc1nnc2ccc(Oc3cc(NCCC4CCCCC4)ccc3-c3ccccc3)nn12 [Cpd.4-185, 3-chloro-6-(4-((cyclohexylethyl)amino)biphenyl-2-yloxy)-[1,2,4]triazolo[4,3-b]pyridazine] | 0.1 to 1 µM | 154 to 159 °C | –
28 | COc1nccc(C)c1-c1ccc(C(F)(F)F)cc1Oc1ccc2nnc(Cl)n2n1 [Cpd.4-130, 3-chloro-6-((2-(2-methoxy-4-methylpyridin-3-yl))-5-(trifluoromethyl)phenoxy)-[1,2,4]triazolo[4,3-b]pyridazine] | 1 to 6 µM | 129 to 132 °C | –
29 | FC(F)(F)c1ccc(CN2CCOCC2)c(Oc2ccc3nnc(Cl)n3n2)c1 [Cpd.4-122, 3-chloro-6-(2-(morpholinomethyl)-5-(trifluoromethyl)phenoxy)-[1,2,4]triazolo[4,3-b]pyridazine] | 1 to 6 µM | 55 to 58 °C | –
30 | FC(F)(F)Oc1ccc(-c2ccccc2)c(Oc2ccc3nnc(Cl)n3n2)c1 [Cpd.4-68, 3-chloro-6-(4-trifluoromethyloxy-biphenyl-2-yloxy)-[1,2,4]triazolo[4,3-b]pyridazine] | 0.1 to 1 µM | 225.4 to 228.2 °C | –
31 | Cc1cc2nnc(Cl)n2nc1Oc1cc(C(F)(F)F)ccc1-c1ccccc1 [Cpd.5-7, 3-chloro-7-methyl-6-(4-trifluoromethyl-biphenyl-2-yloxy)-[1,2,4]triazolo[4,3-b]pyridazine] | 0.1 to 1 µM | 163 to 165 °C | –
32 | Clc1ccc(-c2cccc(Oc3ccc4nnc(Cl)n4n3)c2)cc1 [Cpd.3-12, 6-(4′-chloro-biphenyl-3-yloxy)-3-chloro-[1,2,4]triazolo[4,3-b]pyridazine] | 1 to 6 µM | 128 °C | –
33 | CCN(CC)c1ccc(Oc2ccc3nnc(Cl)n3n2)c(-c2ccccc2)c1 [Cpd.4-55, 3-chloro-6-(5-diethylamino-biphenyl-2-yloxy)-[1,2,4]triazolo[4,3-b]pyridazine] | < 0.1 µM | 55 to 58 °C | –
